The text below walks through data of patent publication US10538555B2, “Macrocyclic inhibitors of the PD-1/PD-L1 and CD80(B7-1)/PD-L1 protein/protein interactions” (BRISTOL-MYERS SQUIBB COMPANY, priority 2014, dated 2020).

In this assay the target is T1, Human PD-L1/PD-1 (Homo sapiens, UniProt Q9NZQ7).
T1 construct: TVMV protease cleavage site (C); made in house; host or cells: HEK293T cells
As to the kind of experiment: HTRF Human PD-L1/PD-1 binding assay (PD-1-Ig/PD-L1-His). Particulars: PD-L1-His 10 nM, PD-1-Ig 20 nM. An outline of the steps: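 Inhibitors were preincubated 15 min with human PD-L1(18-239)-His (10 nM final), then PD-1(25-167)-Ig (20 nM final) was added for 15 min in dPBS/0.1% BSA/0.05% Tween-20. Eu-cryptate anti-Ig (1 nM) and APC anti-His (20 nM) were added; 665/620 nm ratio read after 30 min.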
In general terms: TR-FRET usually uses a lanthanide donor and a delayed reading to cut background.

Setting [1] is: class symbol, read-out: HTRF Human PD-L1/PD-1 Binding Assay IC50 Range.
The mark [2] stands for this setting: read-out: HTRF Human PD-L1/PD-1 Binding Assay IC50.

Where two headings read alike, the source gives them in different places. *1 amine or outer side, *2 acyl side, *3 side chain or, on linkers, in order; H or OH if unused. Where a SMILES comes first, the peptide text is derived from it. Bridges are numbered along the chain shown (N, C = ends). [ ]: non-standard residue; d: D form. ξ: configuration not given here. Trp(7-Br) = N[C@@H](Cc1c[nH]c2c(Br)cccc12)C(=O)O; X4 = CC1(C)CC[C@H](C(=O)[*:2])N1[*:1]; Bta = N[C@@H](Cc1csc2ccccc12)C(=O)O; Hyp = O=C(O)[C@@H]1C[C@@H](O)CN1; NMeF = CN[C@@H](Cc1ccccc1)C(=O)O; NMeNle = CCCC[C@H](NC)C(=O)O; Tle = CC(C)(C)[C@H](N)C(=O)O; Pip = O=C(O)[C@@H]1CCCCN1; NMeA = CN[C@@H](C)C(=O)O; Orn = NCCC[C@H](N)C(=O)O; Dab = NCC[C@H](N)C(=O)O; Dap = NC[C@H](N)C(=O)O; ξPip = O=C(O)C1CCCCN1; Sar = CNCC(=O)O

T1 sequence (Q9NZQ7 with tags, fused parts or gaps): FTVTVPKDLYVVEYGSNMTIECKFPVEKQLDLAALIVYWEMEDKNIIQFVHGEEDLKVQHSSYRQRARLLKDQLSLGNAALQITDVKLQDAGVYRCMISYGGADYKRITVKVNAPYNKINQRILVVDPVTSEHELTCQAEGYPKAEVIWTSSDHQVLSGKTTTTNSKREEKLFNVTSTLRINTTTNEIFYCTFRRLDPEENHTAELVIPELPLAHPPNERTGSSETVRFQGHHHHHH

Consider `CCCC[C@H]1C(=O)N(C)[C@@H](CCCC)C(=O)N[C@@H](CCC(=O)O)C(=O)N[C@H](C(=O)NCC(N)=O)CSCC(=O)N[C@@H](Cc2ccc(O)cc2)C(=O)N2CCCC[C@H]2C(=O)N[C@@H](CC(N)=O)C(=O)N2CCC[C@H]2C(=O)N[C@@H](CN)C(=O)N[C@@H](CCC(=O)O)C(=O)N2C[C@H](O)C[C@H]2C(=O)N[C@@H](Cc2c[nH]c3ccccc23)C(=O)N[C@@H](CCN)C(=O)N[C@@H](Cc2c[nH]c3ccccc23)C(=O)N1C` [Example 1526] ({CH2CO}-Y[Pip]NP[Dap]E[Hyp]W[Dab]W[NMeNle][NMeNle]ECG-NH2; thioether N-14), for which the IC50 under setting [1] was in the range of 1 to 9.9 nM.

As for `CCCC[C@H]1C(=O)N(C)[C@@H](CCCC)C(=O)N[C@@H](CCCN)C(=O)N[C@H](C(=O)NCC(N)=O)CSCC(=O)N[C@@H](Cc2ccc(O)cc2)C(=O)N2CCCCC2C(=O)N[C@@H](CC(=O)O)C(=O)N2CCC[C@H]2C(=O)N[C@@H](CN)C(=O)N[C@@H](CCC(=O)O)C(=O)N2C[C@H](O)C[C@H]2C(=O)N[C@@H](Cc2c[nH]c3ccccc23)C(=O)N[C@@H](CCN)C(=O)N[C@@H](Cc2c[nH]c3ccccc23)C(=O)N1C` (stereo partly shown) [Example 1528] ({CH2CO}-Y[ξPip]DP[Dap]E[Hyp]W[Dab]W[NMeNle][NMeNle][Orn]CG-NH2; thioether N-14), the IC50 under setting [1] is 10 to 99.9 nM.

In the case of `CCCC[C@H]1C(=O)N(C)[C@@H](CCCC)C(=O)N[C@@H](C)C(=O)N[C@H](C(=O)NCC(N)=O)CSCC(=O)N[C@@H](Cc2ccc(O)cc2)C(=O)N2CCNC[C@H]2C(=O)N[C@@H](CC(N)=O)C(=O)N2CCC[C@H]2C(=O)N[C@@H](Cc2c[nH]cn2)C(=O)N[C@@H](CC(C)C)C(=O)N2C[C@H](O)C[C@H]2C(=O)N[C@@H](Cc2c[nH]c3ccccc23)C(=O)N[C@@H](CO)C(=O)N[C@@H](Cc2c[nH]c3ccccc23)C(=O)N1C` [Example 1529], the IC50 under setting [1] was in the range of 1 to 9.9 nM.

`CCCC[C@H]1C(=O)N(C)[C@@H](CCCC)C(=O)N[C@@H](CCCN)C(=O)N[C@H](C(=O)NCC(N)=O)CSCC(=O)N[C@@H](Cc2ccc(O)cc2)C(=O)N2CCCCC2C(=O)N[C@@H](CC(=O)O)C(=O)N2CCC[C@H]2C(=O)N[C@@H](CN)C(=O)N[C@@H](CCC(=O)O)C(=O)N2C[C@H](O)C[C@H]2C(=O)N[C@@H](Cc2c[nH]c3ccccc23)C(=O)N[C@@H](CO)C(=O)N[C@@H](Cc2c[nH]c3ccccc23)C(=O)N1C` (stereo partly shown) [Example 1530] ({CH2CO}-Y[ξPip]DP[Dap]E[Hyp]WSW[NMeNle][NMeNle][Orn]CG-NH2; thioether N-14): the IC50 under setting [1] was 10 to 99.9 nM. Turning to `CCCC[C@H]1C(=O)N(C)[C@@H](CCCC)C(=O)N[C@@H](CCCN)C(=O)N[C@H](C(=O)NCC(N)=O)CSCC(=O)N[C@@H](Cc2ccc(O)cc2)C(=O)N2CCCCC2C(=O)N[C@@H](CC(=O)O)C(=O)N2CCC[C@H]2C(=O)N[C@@H](Cc2c[nH]cn2)C(=O)N[C@@H](CCC(=O)O)C(=O)N2C[C@H](O)C[C@H]2C(=O)N[C@@H](Cc2c[nH]c3ccccc23)C(=O)N[C@@H](CCN)C(=O)N[C@@H](Cc2c[nH]c3ccccc23)C(=O)N1C` (stereo partly shown) [Example 1531] ({CH2CO}-Y[ξPip]DPHE[Hyp]W[Dab]W[NMeNle][NMeNle][Orn]CG-NH2; thioether N-14), the IC50 under setting [1] was in the range of 10 to 99.9 nM. Still for that read-out and setting: the figure for `CCCC[C@H]1C(=O)N(C)[C@@H](CCCC)C(=O)N[C@@H](CCCN)C(=O)N[C@H](C(=O)NCC(N)=O)CSCC(=O)N[C@@H](Cc2ccc(O)cc2)C(=O)N2CCOCC2C(=O)N[C@@H](CC(N)=O)C(=O)N2CCC[C@H]2C(=O)N[C@@H](Cc2c[nH]cn2)C(=O)N[C@@H](CC(C)C)C(=O)N2C[C@H](O)C[C@H]2C(=O)N[C@@H](Cc2c[nH]c3ccccc23)C(=O)N[C@@H](CO)C(=O)N[C@@H](Cc2c[nH]c3ccccc23)C(=O)N1C` (stereo partly shown) [Example 1532] is 1 to 9.9 nM.

With `CCCC[C@H]1C(=O)N(C)[C@@H](CCCC)C(=O)N[C@@H](CC(=O)O)C(=O)N[C@H](C(=O)NCC(N)=O)CSCC(=O)N[C@@H](Cc2ccc(O)cc2)C(=O)N2CCCCC2C(=O)N[C@@H](CC(=O)O)C(=O)N2CCC[C@H]2C(=O)N[C@@H](Cc2c[nH]cn2)C(=O)N[C@@H](CCCN)C(=O)N2C[C@H](O)C[C@H]2C(=O)N[C@@H](Cc2c[nH]c3ccccc23)C(=O)N[C@@H](CCCN)C(=O)N[C@@H](Cc2csc3ccccc23)C(=O)N1C` (stereo partly shown) [Example 1533], the IC50 under setting [1] fell in the range of 1 to 9.9 nM. As to `CC(C)C[C@@H]1NC(=O)[C@H](Cc2c[nH]cn2)NC(=O)[C@@H]2CCCN2C(=O)[C@H](CC(N)=O)NC(=O)[C@H](C)N(C)C(=O)[C@H](Cc2ccc(O)cc2)NC(=O)CSC[C@@H](C(=O)NCC(N)=O)NC(=O)[C@H](C)NC(=O)[C@H](CC(=O)O)N(C)C(=O)[C@H](CCCCN)N(C)C(=O)[C@H](Cc2c[nH]c3ccccc23)NC(=O)[C@H](CO)NC(=O)[C@H](Cc2c[nH]c3ccccc23)NC(=O)[C@@H]2C[C@@H](O)CN2C1=O` [Example 1534], the IC50 under setting [2] stood at 1000 nM. For the compound `CCCC[C@H]1C(=O)N(C)[C@@H](CCCC)C(=O)N[C@@H](CCCN)C(=O)N[C@H](C(=O)NCC(N)=O)CSCC(=O)N[C@@H](Cc2ccc(O)cc2)C(=O)N2CCNC[C@H]2C(=O)N[C@@H](CC(N)=O)C(=O)N2CCC[C@H]2C(=O)N[C@@H](Cc2c[nH]cn2)C(=O)N[C@@H](CC(C)C)C(=O)N2C[C@H](O)C[C@H]2C(=O)N[C@@H](Cc2c[nH]c3ccccc23)C(=O)N[C@@H](CO)C(=O)N[C@@H](Cc2c[nH]c3ccccc23)C(=O)N1C` [Example 1535], the IC50 under setting [1] lay within 10 to 99.9 nM. With `CCCC[C@H]1C(=O)N(C)[C@@H](CCCC)C(=O)N[C@@H](CCCN)C(=O)N[C@H](C(=O)NCC(N)=O)CSCC(=O)N[C@@H](Cc2ccc(O)cc2)C(=O)N2CCCC[C@H]2C(=O)N[C@@H](CC(=O)O)C(=O)N2CCC[C@H]2C(=O)N[C@@H](Cc2c[nH]cn2)C(=O)N[C@@H](CCC(=O)O)C(=O)N2C[C@H](O)C[C@H]2C(=O)N[C@@H](Cc2c[nH]c3ccccc23)C(=O)N[C@@H](CO)C(=O)N[C@@H](Cc2c[nH]c3ccccc23)C(=O)N1C` [Example 1536] ({CH2CO}-Y[Pip]DPHE[Hyp]WSW[NMeNle][NMeNle][Orn]CG-NH2; thioether N-14), the IC50 under setting [1] lay within 10 to 99.9 nM. Same read-out and setting: for `CCCC[C@H]1C(=O)N(C)[C@@H](CCCC)C(=O)N[C@@H](CCCNC(=N)N)C(=O)N[C@H](C(=O)NCC(N)=O)CSCC(=O)N[C@@H](Cc2ccc(O)cc2)C(=O)N2CCCC[C@H]2C(=O)N[C@@H](CC(=O)O)C(=O)N2CCC[C@H]2C(=O)N[C@@H](Cc2c[nH]cn2)C(=O)N[C@@H](CCCN)C(=O)N2C[C@H](O)C[C@H]2C(=O)N[C@@H](Cc2c[nH]c3ccccc23)C(=O)N[C@@H](CO)C(=O)N[C@@H](Cc2c[nH]c3ccccc23)C(=O)N1C` [Example 1537] ({CH2CO}-Y[Pip]DPH[Orn][Hyp]WSW[NMeNle][NMeNle]RCG-NH2; thioether N-14) the value was 10 to 99.9 nM.

For `CCCC[C@H]1C(=O)N(C)[C@@H](CCCC)C(=O)N[C@@H](CCCNC(=N)N)C(=O)N[C@H](C(=O)NCC(N)=O)CSCC(=O)N[C@@H](Cc2ccc(O)cc2)C(=O)N2CCCC[C@H]2C(=O)N[C@@H](CCC(=O)O)C(=O)N2CCC[C@H]2C(=O)N[C@@H](Cc2c[nH]cn2)C(=O)N[C@@H](CCCN)C(=O)N2C[C@H](O)C[C@H]2C(=O)N[C@@H](Cc2c[nH]c3ccccc23)C(=O)N[C@@H](CO)C(=O)N[C@@H](Cc2c[nH]c3ccccc23)C(=O)N1C` [Example 1538] ({CH2CO}-Y[Pip]EPH[Orn][Hyp]WSW[NMeNle][NMeNle]RCG-NH2; thioether N-14), under setting [1], the IC50 lay in the range of 10 to 99.9 nM. For `CCCC[C@H]1C(=O)N(C)[C@@H](CCCC)C(=O)N[C@@H](C)C(=O)N[C@H](C(=O)NCC(N)=O)CSCC(=O)N[C@@H](Cc2ccc(O)cc2)C(=O)N(C)[C@@H](C)C(=O)N[C@@H](CC(N)=O)C(=O)N2CCC[C@H]2C(=O)N[C@@H](Cc2cnc[nH]2)C(=O)N[C@@H](CCC(N)=O)C(=O)N2C[C@H](O)C[C@H]2C(=O)N[C@@H](Cc2c[nH]c3ccccc23)C(=O)N[C@@H](CO)C(=O)N[C@@H](Cc2c[nH]c3c(Br)cccc23)C(=O)N1C` [Example 1541] ({CH2CO}-Y[NMeA]NPHQ[Hyp]WS[Trp(7-Br)][NMeNle][NMeNle]ACG-NH2; thioether N-14), the IC50 under setting [2] was found to be 451 nM.

As for `CCCC[C@H]1C(=O)N(C)[C@@H](CCCC)C(=O)N[C@@H](C)C(=O)N[C@H](C(=O)NCC(N)=O)CSCC(=O)N[C@@H](Cc2ccc(O)cc2)C(=O)N(C)[C@@H](C)C(=O)N[C@@H](CC(N)=O)C(=O)N2CCC[C@H]2C(=O)N[C@@H](Cc2cnc[nH]2)C(=O)N[C@@H](CCC(N)=O)C(=O)N2C[C@H](O)C[C@H]2C(=O)N[C@@H](Cc2c[nH]c3ccccc23)C(=O)N[C@@H](CO)C(=O)N[C@@H](Cc2csc3ccccc23)C(=O)N1C` [Example 1542] ({CH2CO}-Y[NMeA]NPHQ[Hyp]WS[Bta][NMeNle][NMeNle]ACG-NH2; thioether N-14), the IC50 under setting [1] was in the range of 10 to 99.9 nM. In the case of `CCCC[C@H]1C(=O)N(C)CC(=O)N[C@@H](CC(=O)O)C(=O)N[C@@H](C(C)C)C(=O)N(C)[C@@H](Cc2ccccc2)C(=O)N[C@@H](Cc2ccc(O)cc2)C(=O)N2[C@H](CCC2(C)C)C(=O)N[C@@H](Cc2c[nH]c3ccccc23)C(=O)N[C@@H](Cc2ccc(O)cc2)C(=O)N[C@@H](CC(C)C)C(=O)N[C@H](C(=O)NCC(N)=O)CSCC(=O)N[C@@H](Cc2ccccc2)C(=O)N(C)[C@@H](Cc2ccccc2)C(=O)N1C` [Example 3210] ({CH2CO}-F[NMeF][NMeNle][Sar]DV[NMeF]Y[X4]WYLCG-NH2; thioether N-13), the IC50 under setting [2] was found to be 1000 nM.

Regarding `CCCC[C@H]1C(=O)N(C)CC(=O)N[C@@H](CC(=O)O)C(=O)N[C@@H](C(C)(C)C)C(=O)N(C)[C@@H](Cc2ccccc2)C(=O)N[C@@H](Cc2ccc(O)cc2)C(=O)N(C)CC(=O)N[C@@H](Cc2c[nH]c3ccccc23)C(=O)N[C@@H](Cc2ccc(O)cc2)C(=O)N[C@@H](CC(C)C)C(=O)N[C@H](C(=O)NCC(N)=O)CSCC(=O)N[C@@H](Cc2ccccc2)C(=O)N(C)[C@@H](Cc2ccccc2)C(=O)N1C` [Example 3211] ({CH2CO}-F[NMeF][NMeNle][Sar]D[Tle][NMeF]Y[Sar]WYLCG-NH2; thioether N-13), the IC50 under setting [1] lay within 10 to 99.9 nM.
